Measured values published in patent US10988523B2, “Modified lipidated Relaxin B chain peptides and their therapeutic use” (Sanofi, priority 2018, dated 2021).
*1 amine or outer side, *2 acyl side, *3 side chain or, on linkers, in order; H or OH if unused. Where a SMILES comes first, the peptide text is derived from it. Side-chain parts run from the residue outwards. [ ]: non-standard residue; d: D form. The star is where a group is joined. PEG12 = NCCOCCOCCOCCOCCOCCOCCOCCOCCOCCOCCOCCOCCC(=O)O; γGlu = O=C(O)[C@H](CCC(=O)[*:2])N[*:1]; Stearoyl = CCCCCCCCCCCCCCCCCC(=O)*; Palmitoyl = CCCCCCCCCCCCCCCC(=O)*; αMeK = C[C@](N)(CCCCN)C(=O)O; Nle = CCCC[C@H](N)C(=O)O; AEEA = NCCOCCOCC(=O)O; Aib = CC(C)(N)C(=O)O

Target: T1, RXFP1 (Homo sapiens, UniProt Q9HBX9)
T1 construct: OVCAR5 cells expressing endogenous RXFP1; endogenous in cells; host or cells: OVCAR5 cells
T1 sequence (Q9HBX9 1-757): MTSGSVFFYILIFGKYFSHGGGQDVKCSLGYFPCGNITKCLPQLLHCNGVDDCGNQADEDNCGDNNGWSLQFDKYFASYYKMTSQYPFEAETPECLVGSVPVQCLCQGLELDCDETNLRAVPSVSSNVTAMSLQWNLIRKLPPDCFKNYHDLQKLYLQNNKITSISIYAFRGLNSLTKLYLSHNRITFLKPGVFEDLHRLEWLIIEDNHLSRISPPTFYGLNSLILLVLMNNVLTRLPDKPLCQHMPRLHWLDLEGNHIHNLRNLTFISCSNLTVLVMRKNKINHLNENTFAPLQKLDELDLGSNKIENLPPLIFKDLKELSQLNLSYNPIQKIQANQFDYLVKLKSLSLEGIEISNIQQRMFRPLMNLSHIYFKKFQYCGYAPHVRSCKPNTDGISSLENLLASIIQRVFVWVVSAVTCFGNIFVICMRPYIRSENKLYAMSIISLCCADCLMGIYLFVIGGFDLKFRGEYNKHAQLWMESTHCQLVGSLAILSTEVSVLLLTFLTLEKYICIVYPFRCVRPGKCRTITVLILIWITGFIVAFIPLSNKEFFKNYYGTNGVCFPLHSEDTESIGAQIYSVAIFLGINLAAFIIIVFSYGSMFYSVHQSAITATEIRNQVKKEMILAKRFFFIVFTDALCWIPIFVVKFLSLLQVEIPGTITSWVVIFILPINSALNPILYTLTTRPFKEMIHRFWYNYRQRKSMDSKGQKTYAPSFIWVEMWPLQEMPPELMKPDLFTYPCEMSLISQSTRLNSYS
Test: OVCAR5 cAMP assay (HTRF), RXFP1 agonist activity
Assay type: cell-based
Conditions: for EC50: OVCAR5 cells, cAMP HTRF, read-out: EC50 (nM), OVCAR 5 cells (cAMP); for Emax: OVCAR-5, maximal cAMP relative to H2-relaxin maximum (100%), read-out: EMax, OVCAR 5 cells (cAMP)
Method in brief: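 OVCAR5 cells (endogenous RXFP1) pretreated 40 min at 37° C with 1 mM IBMX, then exposed to peptides in serum-free medium for 30 min at 37° C. Lysate cAMP read by HTRF; EC50 from variable-slope sigmoidal fit; Emax as % of H2-relaxin maximal cAMP in same run.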

SMILES: CCCCCCCCCCCCCCCC(=O)N[C@@H](CCC(=O)N[C@@H](CCC(=O)N[C@@H](CCC(=O)N[C@@H](CCC(=O)NCCOCCOCC(=O)NCCOCCOCC(=O)NCCOCCOCC(=O)NCCCC[C@H](NC(=O)[C@H](CCCCNC(C)=O)NC(=O)[C@H](CCCCN)NC(=O)[C@H](CCCNC(=N)N)NC(=O)[C@](C)(CCCCN)NC(=O)[C@H](CO)NC(=O)[C@H](Cc1c[nH]c2ccccc12)NC(=O)[C@@H](NC(=O)[C@H](CO)NC(=O)[C@H](CCCC)NC(=O)CNC(=O)[C@H](CCC(=O)O)NC(=O)C(C)(C)NC(=O)C(C)(C)NC(=O)[C@@H](NC(=O)[C@H](CCCCNC(C)=O)NC(=O)[C@H](C)NC(=O)[C@H](CCCNC(=N)N)NC(=O)[C@@H](NC(=O)[C@H](CCCCN)NC(=O)[C@H](CCC(=O)O)NC(=O)[C@H](CCCNC(=N)N)NC(=O)CNC(=O)[C@H](CCC(=O)O)NC(=O)[C@H](CC(C)C)NC(C)=O)C(C)C)[C@@H](C)CC)[C@@H](C)O)C(N)=O)C(=O)O)C(=O)O)C(=O)O)C(=O)O [compound 65] (Ac-LEGREKVRAK(Ac)I[Aib][Aib]EG[Nle]STWS[αMeK]RKK(Ac)K([AEEA-AEEA-AEEA-γGlu-γGlu-γGlu-γGlu-Palmitoyl])-NH2)
- EC50: 0.12 nM
- Emax: 93%

SMILES: CCCCCCCCCCCCCCCC(=O)N[C@@H](CCC(=O)N[C@@H](CCC(=O)N[C@@H](CCC(=O)NCCOCCOCCOCCOCCOCCOCCOCCOCCOCCOCCOCCOCCC(=O)NCCCC[C@H](NC(=O)[C@H](CCCCNC(C)=O)NC(=O)[C@H](CCCCN)NC(=O)[C@H](CCCNC(=N)N)NC(=O)C(C)(C)NC(=O)[C@H](CO)NC(=O)[C@H](Cc1c[nH]c2ccccc12)NC(=O)[C@@H](NC(=O)[C@H](CO)NC(=O)[C@H](CCCC)NC(=O)CNC(=O)[C@H](CCC(=O)O)NC(=O)C(C)(C)NC(=O)C(C)(C)NC(=O)[C@@H](NC(=O)[C@H](CCCCNC(C)=O)NC(=O)[C@H](C)NC(=O)[C@H](CCCNC(=N)N)NC(=O)[C@@H](NC(=O)[C@H](CCCCN)NC(=O)[C@H](CCC(=O)O)NC(=O)[C@H](CCCNC(=N)N)NC(=O)CNC(=O)[C@H](CCC(=O)O)NC(=O)[C@H](CC(C)C)NC(C)=O)C(C)C)[C@@H](C)CC)[C@@H](C)O)C(N)=O)C(=O)O)C(=O)O)C(=O)O [compound 66] (Ac-LEGREKVRAK(Ac)I[Aib][Aib]EG[Nle]STWS[Aib]RKK(Ac)K([PEG12-γGlu-γGlu-γGlu-Palmitoyl])-NH2)
- Emax: 83%

SMILES: CCCCCCCCCCCCCCCCCC(=O)N[C@@H](CCC(=O)N[C@@H](CCC(=O)N[C@@H](CCC(=O)NCCOCCOCC(=O)NCCOCCOCC(=O)NCCCC[C@H](NC(=O)[C@H](CCCCN)NC(=O)[C@H](CCCNC(=N)N)NC(=O)C(C)(C)NC(=O)[C@H](CO)NC(=O)[C@H](Cc1c[nH]c2ccccc12)NC(=O)[C@@H](NC(=O)[C@H](CO)NC(=O)[C@H](CCCC)NC(=O)CNC(=O)[C@H](CCC(=O)O)NC(=O)C(C)(C)NC(=O)C(C)(C)NC(=O)[C@@H](NC(=O)[C@H](CCC(N)=O)NC(=O)[C@H](C)NC(=O)[C@H](CCCNC(=N)N)NC(=O)[C@@H](NC(=O)[C@H](CCCCN)NC(=O)[C@H](CCC(=O)O)NC(=O)[C@H](CCCNC(=N)N)NC(=O)CNC(=O)[C@H](CCC(=O)O)NC(=O)[C@H](CC(C)C)NC(C)=O)C(C)C)[C@@H](C)CC)[C@@H](C)O)C(N)=O)C(=O)O)C(=O)O)C(=O)O [compound 67] (Ac-LEGREKVRAQI[Aib][Aib]EG[Nle]STWS[Aib]RKK([AEEA-AEEA-γGlu-γGlu-γGlu-Stearoyl])-NH2)
- Emax: 89%

SMILES: CCCCCCCCCCCCCCCCCC(=O)N[C@@H](CCC(=O)N[C@@H](CCC(=O)N[C@@H](CCC(=O)NCCOCCOCC(=O)NCCOCCOCC(=O)NCCCC[C@H](NC(=O)[C@H](CCCCN)NC(=O)[C@H](CCCCN)NC(=O)[C@H](CCCNC(=N)N)NC(=O)C(C)(C)NC(=O)[C@H](CO)NC(=O)[C@H](Cc1c[nH]c2ccccc12)NC(=O)[C@@H](NC(=O)[C@H](CO)NC(=O)[C@H](CCC(=O)O)NC(=O)CNC(=O)[C@H](CCC(=O)O)NC(=O)C(C)(C)NC(=O)C(C)(C)NC(=O)[C@@H](NC(=O)[C@H](CCC(N)=O)NC(=O)[C@H](C)NC(=O)[C@H](CCCNC(=N)N)NC(=O)[C@@H](NC(=O)[C@H](CCCCN)NC(=O)[C@H](CCC(=O)O)NC(=O)[C@H](CCCNC(=N)N)NC(=O)CNC(=O)[C@H](CCC(=O)O)NC(=O)[C@H](CC(C)C)NC(C)=O)C(C)C)[C@@H](C)CC)[C@@H](C)O)C(N)=O)C(=O)O)C(=O)O)C(=O)O [compound 68] (Ac-LEGREKVRAQI[Aib][Aib]EGESTWS[Aib]RKKK([AEEA-AEEA-γGlu-γGlu-γGlu-Stearoyl])-NH2)
- Emax: 94%

SMILES: CCCCCCCCCCCCCCCCCC(=O)N[C@@H](CCC(=O)N[C@@H](CCC(=O)N[C@@H](CCC(=O)NCCOCCOCC(=O)NCCOCCOCC(=O)NCCCC[C@H](NC(=O)[C@H](CCCCN)NC(=O)[C@H](CCCCN)NC(=O)[C@H](CCCNC(=N)N)NC(=O)C(C)(C)NC(=O)[C@H](CO)NC(=O)[C@H](Cc1c[nH]c2ccccc12)NC(=O)[C@@H](NC(=O)[C@H](CO)NC(=O)[C@H](CCCC)NC(=O)CNC(=O)[C@H](CCC(=O)O)NC(=O)C(C)(C)NC(=O)C(C)(C)NC(=O)[C@@H](NC(=O)[C@H](CCC(N)=O)NC(=O)C(C)(C)NC(=O)[C@H](CCCNC(=N)N)NC(=O)[C@@H](NC(=O)[C@H](CCCCN)NC(=O)[C@H](CCC(=O)O)NC(=O)[C@H](CCCNC(=N)N)NC(=O)CNC(=O)[C@H](CCC(=O)O)NC(=O)[C@H](CC(C)C)NC(C)=O)C(C)C)[C@@H](C)CC)[C@@H](C)O)C(N)=O)C(=O)O)C(=O)O)C(=O)O [compound 69] (Ac-LEGREKVR[Aib]QI[Aib][Aib]EG[Nle]STWS[Aib]RKKK([AEEA-AEEA-γGlu-γGlu-γGlu-Stearoyl])-NH2)
- Emax: 87%

SMILES: CCCCCCCCCCCCCCCCCC(=O)N[C@@H](CCC(=O)N[C@@H](CCC(=O)N[C@@H](CCC(=O)NCCOCCOCC(=O)NCCOCCOCC(=O)NCCCC[C@H](NC(=O)[C@H](CCCCN)NC(=O)[C@H](CCCCN)NC(=O)[C@H](CCCNC(=N)N)NC(=O)C(C)(C)NC(=O)[C@H](CO)NC(=O)[C@H](Cc1c[nH]c2ccccc12)NC(=O)[C@@H](NC(=O)[C@H](CO)NC(=O)[C@H](CCC(N)=O)NC(=O)CNC(=O)[C@H](CCC(=O)O)NC(=O)C(C)(C)NC(=O)C(C)(C)NC(=O)[C@@H](NC(=O)[C@H](CCC(N)=O)NC(=O)[C@H](C)NC(=O)[C@H](CCCNC(=N)N)NC(=O)[C@@H](NC(=O)[C@H](CCCCN)NC(=O)[C@H](CCC(=O)O)NC(=O)[C@H](CCCNC(=N)N)NC(=O)CNC(=O)[C@H](CCC(=O)O)NC(=O)[C@H](CC(C)C)NC(C)=O)C(C)C)[C@@H](C)CC)[C@@H](C)O)C(N)=O)C(=O)O)C(=O)O)C(=O)O [compound 70] (Ac-LEGREKVRAQI[Aib][Aib]EGQSTWS[Aib]RKKK([AEEA-AEEA-γGlu-γGlu-γGlu-Stearoyl])-NH2)
- Emax: 86%

SMILES: CCCCCCCCCCCCCCCCCC(=O)N[C@@H](CCC(=O)N[C@@H](CCC(=O)N[C@@H](CCC(=O)NCCOCCOCC(=O)NCCOCCOCC(=O)NCCCC[C@H](NC(=O)[C@H](CCCCN)NC(=O)[C@H](CCCCN)NC(=O)[C@H](CCCNC(=N)N)NC(=O)C(C)(C)NC(=O)[C@H](CO)NC(=O)[C@H](Cc1c[nH]c2ccccc12)NC(=O)[C@@H](NC(=O)[C@H](CO)NC(=O)[C@H](CCCC)NC(=O)CNC(=O)[C@H](CCC(=O)O)NC(=O)C(C)(C)NC(=O)C(C)(C)NC(=O)[C@@H](NC(=O)[C@H](CCC(N)=O)NC(=O)[C@H](C)NC(=O)[C@H](CCCNC(=N)N)NC(=O)[C@@H](NC(=O)[C@H](CCCCN)NC(=O)[C@H](CCC(=O)O)NC(=O)[C@H](CCCNC(=N)N)NC(=O)CNC(=O)[C@H](CCC(=O)O)NC(=O)[C@H](CC(C)C)NC(C)=O)C(C)C)[C@@H](C)CC)[C@@H](C)O)C(N)=O)C(=O)O)C(=O)O)C(=O)O [compound 71] (Ac-LEGREKVRAQI[Aib][Aib]EG[Nle]STWS[Aib]RKKK([AEEA-AEEA-γGlu-γGlu-γGlu-Stearoyl])-NH2)
- Emax: 87%

SMILES: CCCCCCCCCCCCCCCCCC(=O)N[C@@H](CCC(=O)N[C@@H](CCC(=O)N[C@@H](CCC(=O)NCCOCCOCC(=O)NCCOCCOCC(=O)NCCCC[C@H](NC(=O)[C@H](CCCCN)NC(=O)[C@H](CCCCNC(C)=O)NC(=O)[C@H](CCCNC(=N)N)NC(=O)C(C)(C)NC(=O)[C@H](CO)NC(=O)[C@H](Cc1c[nH]c2ccccc12)NC(=O)[C@@H](NC(=O)[C@H](CO)NC(=O)[C@H](CCCC)NC(=O)CNC(=O)[C@H](CCC(=O)O)NC(=O)C(C)(C)NC(=O)C(C)(C)NC(=O)[C@@H](NC(=O)[C@H](CCCCNC(C)=O)NC(=O)[C@H](C)NC(=O)[C@H](CCCNC(=N)N)NC(=O)[C@@H](NC(=O)[C@H](CCCCN)NC(=O)[C@H](CCC(=O)O)NC(=O)[C@H](CCCNC(=N)N)NC(=O)CNC(=O)[C@H](CCC(=O)O)NC(=O)[C@H](CC(C)C)NC(C)=O)C(C)C)[C@@H](C)CC)[C@@H](C)O)C(N)=O)C(=O)O)C(=O)O)C(=O)O [compound 72] (Ac-LEGREKVRAK(Ac)I[Aib][Aib]EG[Nle]STWS[Aib]RK(Ac)KK([AEEA-AEEA-γGlu-γGlu-γGlu-Stearoyl])-NH2)
- EC50: 0.17 nM
- Emax: 93%
